These results are taken from patent publication US11225505B2, “Antimicrobial polymyxin derivative compounds” (MONASH UNIVERSITY, priority 2015, dated 2022).

Assay type in all cases: cell-based
Assay [1] concerns Acinetobacter baumannii ATCC 17978. Here is the method:
(§1) MICs of the lipopeptides (trifluoroacetic acid salt, TFA) were determined by broth microdilution in cation-adjusted Mueller-Hinton broth (CAMHB) (Oxoid Australia, Thebarton, SA, Australia) according to the Clinical and Laboratory Standards Institute protocol (Clinical and Laboratory Standards Institute, Performance standards for antimicrobial susceptibility testing; twentyforth informational supplement M100-S24. Wayne, Pa., 2014). Polymyxin B sulphate was employed as the control. Antimicrobial activity of Compounds 1-104 against polymyxin-susceptible Gram-negative bacteria was examined. The following isolates were examined: Pseudomonas aeruginosa ATCC 27853, Pseudomonas aeruginosa FADDI-PA022*, Pseudomonas aeruginosa FADDI-PA01*, Pseudomonas aeruginosa FADDI-PA038*, Acinetobacter baumannii FADDI-AB034*, Acinetobacter baumannii ATCC 17978, Acinetobacter baumannii FADDI-AB030*, Klebsiella pneumoniae FADDI-KP032, Klebsiella pneumoniae FADDI-KP022*, Klebsiella pneumoniae Kp BM1*, Enterobacter cloacae FADDI-EC006, Enterobacter cloacae FADDI-EC001, and Enterobacter cloacae FADDI-EC003 (* Multi drug-resistant clinical isolates, § New Delhi Metallo-beta-lactamase-1 (NDM-1) producing). The results are illustrated in Tables 4 and 5.

The subject of assay [2] is Acinetobacter baumannii FADDI-AB034. How it is done: as §1
The test system of assay [3] is Enterobacter cloacae FADDI-EC001. Here is the method: as §1
For assay [4], the system named is Enterobacter cloacae FADDI-EC003. How it is done:
as §1

Assay [5] concerns Enterobacter cloacae FADDI-EC006. How it is done:
as §1

The test system of assay [6] is Klebsiella pneumoniae FADDI-KP022. How it is done: as §1
The subject of assay [7] is Klebsiella pneumoniae FADDI-KP032. Here is the method: as §1
In assay [8] the test system is Klebsiella pneumoniae Kp BM1. Here is the method: as §1
Assay [9] has as its system Pseudomonas aeruginosa ATCC 27853. Here is the method: as §1
The test system of assay [10] is Pseudomonas aeruginosa FADDI-PA01. Here is the method: as §1
The test system of assay [11] is Pseudomonas aeruginosa FADDI-PA022. Here is the method:
as §1

The test system of assay [12] is Pseudomonas aeruginosa FADDI-PA038. Here is the method:
as §1

The test system of assay [13] is Acinetobacter baumannii FADDI-AB030. Briefly: microbe, parasite or virus in culture. How it is done: as §1, with “Antimicrobial activity of Compounds 1-104 against polymyxin-susceptible Gram-negative bacteria was examined.” left out, “5. […]” for “5.”

Values after ≈ are worked out from the molar mass of the structure shown. Like-named read-outs stand apart in the source and are kept apart here. Where a SMILES comes first, the peptide text is derived from it. Bridges are numbered along the chain shown (N, C = ends). [ ]: non-standard residue; d: D form. The star is where a group is joined. Quinoxaline2carbonyl = O=C(c1cnc2ccccc2n1)*; X37 = O=C(c1ccc(-c2ccc(Cl)cc2)s1)*; X32 = O=C(c1cnc(Cl)c(Cl)c1)*; X27 = O=C(c1sc2ccccc2c1Cl)*; X12 = CCc1ccc(C(=O)*)nc1; Dab = NCC[C@H](N)C(=O)O; Abu = CC[C@H](N)C(=O)O; Dap = NC[C@H](N)C(=O)O

With `CC[C@@H]1NC(=O)[C@@H](CC(C)C)NC(=O)[C@H](CCN)NC(=O)[C@@H](NC(=O)[C@H](CN)NC(=O)[C@@H](NC(=O)[C@H](CCN)NC(=O)c2cnc3ccccc3n2)[C@@H](C)O)CCNC(=O)[C@H]([C@@H](C)O)NC(=O)[C@H](CCN)NC(=O)[C@H](CCN)NC1=O` [Compound 46] (Quinoxaline2carbonyl-[Dab]T[Dap][Dab][Dab][dL][Abu][Dab][Dab]T; lactam 4-C), the Minimum inhibitory concentration was 4 µg/mL (≈ 3.5 µM) in [1] (ATCC 17978); 4 µg/mL (≈ 3.5 µM) in [2] (FADDI-AB034); 0.25 µg/mL (≈ 0.219 µM) in [3] (FADDI-EC001); 0.25 µg/mL (≈ 0.219 µM) in assay [4] (FADDI-EC003); 2 µg/mL (≈ 1.75 µM) in assay [5] (FADDI-EC006); <0.125 µg/mL in assay [6] (FADDI-KP022). Besides, the Minimum inhibitory concentration is <0.125 µg/mL in assay [7] (FADDI-KP032); 0.25 µg/mL (≈ 0.219 µM) in assay [8] (Kp BM1); 0.5 µg/mL (≈ 0.437 µM) in [9] (ATCC 27853); 0.25 µg/mL (≈ 0.219 µM) in assay [10] (FADDI-); 0.5 µg/mL (≈ 0.437 µM) in assay [11] (FADDI-PA022); 0.5 µg/mL (≈ 0.437 µM) in assay [12] (FADDI-PA038). This molecule registered a Minimum inhibitory concentration in assay [13] (FADDI-AB030) of 2 µg/mL (≈ 1.75 µM).

For the molecule Polymyxin B [reference compound], the Minimum inhibitory concentration in [1] (A. baumannii ATCC 17978, CAMHB broth microdilution) is 1 µg/mL; in assay [2] (A. baumannii FADDI-AB034, CAMHB broth microdilution), 0.5 µg/mL; in [3] (E. cloacae FADDI-EC001, CAMHB broth microdilution), 0.25 µg/mL; in assay [4] (E. cloacae FADDI-EC003, CAMHB broth microdilution), 0.5 µg/mL; in assay [5] (E. cloacae FADDI-EC006, CAMHB broth microdilution) it was 0.5 µg/mL; in [6] (K. pneumoniae FADDI-KP022, CAMHB broth microdilution) it was <0.125 µg/mL. The Minimum inhibitory concentration is <0.125 µg/mL in assay [7] (K. pneumoniae FADDI-KP032, CAMHB broth microdilution); 0.5 µg/mL in assay [8] (K. pneumoniae Kp BM1, CAMHB broth microdilution); 1 µg/mL in assay [9] (P. aeruginosa ATCC 27853, CAMHB broth microdilution); 0.5 µg/mL in assay [10] (P. aeruginosa FADDI-PA01, CAMHB broth microdilution); 1 µg/mL in [11] (P. aeruginosa FADDI-PA022, CAMHB broth microdilution); 1 µg/mL in assay [12] (P. aeruginosa FADDI-PA038, CAMHB broth microdilution). The Minimum inhibitory concentration in [13] (A. baumannii FADDI-AB030, CAMHB broth microdilution) amounted to 0.25 µg/mL; in assay [13] (clinically used antibiotics, clinical isolate A. baumannii FADDI-AB030) it was 0.25 µg/mL.

Regarding `CCc1ccc(C(=O)N[C@@H](CCN)C(=O)N[C@H](C(=O)N[C@@H](CN)C(=O)N[C@H]2CCNC(=O)[C@H]([C@@H](C)O)NC(=O)[C@H](CCN)NC(=O)[C@H](CCN)NC(=O)[C@H](CC)NC(=O)[C@@H](CC(C)C)NC(=O)[C@H](CCN)NC2=O)[C@@H](C)O)nc1` [Compound 42] (X12-[Dab]T[Dap][Dab][Dab][dL][Abu][Dab][Dab]T; lactam 4-C), the Minimum inhibitory concentration in assay [1] (ATCC 17978) is 1 µg/mL (≈ 0.893 µM); in assay [2] (FADDI-AB034) it was 0.5 µg/mL (≈ 0.446 µM); in [3] (FADDI-EC001) it was <0.125 µg/mL; in assay [4] (FADDI-EC003) it was <0.125 µg/mL; in [5] (FADDI-EC006) it was <0.125 µg/mL; in assay [6] (FADDI-KP022), <0.125 µg/mL. In addition, the Minimum inhibitory concentration was <0.125 µg/mL in assay [7] (FADDI-KP032); 0.25 µg/mL (≈ 0.223 µM) in assay [8] (Kp BM1); <0.125 µg/mL in [9] (ATCC 27853); <0.125 µg/mL in assay [10] (FADDI-); <0.125 µg/mL in [11] (FADDI-PA022); 0.25 µg/mL (≈ 0.223 µM) in assay [12] (FADDI-PA038). Besides, the Minimum inhibitory concentration in [13] (FADDI-AB030) was <0.125 µg/mL.

On to `CC(C)C[C@H]1NC(=O)[C@H](CCN)NC(=O)[C@@H](NC(=O)[C@H](CN)NC(=O)[C@@H](NC(=O)[C@H](CCN)NC(=O)c2sc3ccccc3c2Cl)[C@@H](C)O)CCNC(=O)[C@H]([C@@H](C)O)NC(=O)[C@H](CCN)NC(=O)[C@H](CCN)NC(=O)[C@H]([C@@H](C)O)NC1=O` [Compound 68] (X27-[Dab]T[Dap][Dab][Dab][dL]T[Dab][Dab]T; lactam 4-C), for which the Minimum inhibitory concentration was 0.25 µg/mL (≈ 0.209 µM) in [1] (ATCC 17978); <0.125 µg/mL in assay [2] (FADDI-AB034); <0.125 µg/mL in assay [3] (FADDI-EC001); <0.125 µg/mL in [4] (FADDI-EC003); 0.25 µg/mL (≈ 0.209 µM) in assay [5] (FADDI-EC006); <0.125 µg/mL in assay [6] (FADDI-KP022). Moreover, the Minimum inhibitory concentration in [7] (FADDI-KP032) amounted to 0.25 µg/mL (≈ 0.209 µM); in assay [8] (Kp BM1), 0.25 µg/mL (≈ 0.209 µM); in assay [9] (ATCC 27853) it was 0.25 µg/mL (≈ 0.209 µM); in [10] (FADDI-) it was 0.5 µg/mL (≈ 0.417 µM); in assay [11] (FADDI-PA022), 0.25 µg/mL (≈ 0.209 µM); in assay [12] (FADDI-PA038) it was 1 µg/mL (≈ 0.835 µM). For the same molecule, the Minimum inhibitory concentration in [13] (FADDI-AB030) is <0.125 µg/mL.

With `CC(C)C[C@H]1NC(=O)[C@H](CCN)NC(=O)[C@@H](NC(=O)[C@H](CN)NC(=O)[C@@H](NC(=O)[C@H](CCN)NC(=O)c2ccc(-c3ccc(Cl)cc3)s2)[C@@H](C)O)CCNC(=O)[C@H]([C@@H](C)O)NC(=O)[C@H](CCN)NC(=O)[C@H](CCN)NC(=O)[C@H]([C@@H](C)O)NC1=O` [Compound 17] (X37-[Dab]T[Dap][Dab][Dab][dL]T[Dab][Dab]T; lactam 4-C), the Minimum inhibitory concentration in assay [1] (ATCC 17978) was 2 µg/mL (≈ 1.63 µM); in [2] (FADDI-AB034) it was 1 µg/mL (≈ 0.817 µM); in assay [3] (FADDI-EC001), 0.25 µg/mL (≈ 0.204 µM); in assay [4] (FADDI-EC003) it was 1 µg/mL (≈ 0.817 µM); in assay [5] (FADDI-EC006) it was 0.5 µg/mL (≈ 0.409 µM); in assay [6] (FADDI-KP022), <0.125 µg/mL. Further, the Minimum inhibitory concentration in assay [7] (FADDI-KP032) turned out to be 0.5 µg/mL (≈ 0.409 µM); in assay [8] (Kp BM1), 0.5 µg/mL (≈ 0.409 µM); in [9] (ATCC 27853), 1 µg/mL (≈ 0.817 µM); in assay [10] (FADDI-) it was 0.5 µg/mL (≈ 0.409 µM); in [11] (FADDI-PA022), 1 µg/mL (≈ 0.817 µM); in [12] (FADDI-PA038), 1 µg/mL (≈ 0.817 µM). The Minimum inhibitory concentration in assay [13] (FADDI-AB030) came out at 0.25 µg/mL (≈ 0.204 µM).

Turning to `CC[C@@H]1NC(=O)[C@@H](CC(C)C)NC(=O)[C@H](CCN)NC(=O)[C@@H](NC(=O)[C@H](CN)NC(=O)[C@@H](NC(=O)[C@H](CCN)NC(=O)c2cnc(Cl)c(Cl)c2)[C@@H](C)O)CCNC(=O)[C@H]([C@@H](C)O)NC(=O)[C@H](CCN)NC(=O)[C@H](CCN)NC1=O` [Compound 5] (X32-[Dab]T[Dap][Dab][Dab][dL][Abu][Dab][Dab]T; lactam 4-C), the Minimum inhibitory concentration in assay [1] (ATCC 17978) was 1 µg/mL (≈ 0.861 µM); in assay [2] (FADDI-AB034) it was 0.5 µg/mL (≈ 0.431 µM); in assay [3] (FADDI-EC001), 0.25 µg/mL (≈ 0.215 µM); in [4] (FADDI-EC003) it was 0.5 µg/mL (≈ 0.431 µM); in assay [5] (FADDI-EC006), 1 µg/mL (≈ 0.861 µM); in assay [6] (FADDI-KP022), <0.125 µg/mL. Further, the Minimum inhibitory concentration in [7] (FADDI-KP032) was 0.25 µg/mL (≈ 0.215 µM); in [8] (Kp BM1), <0.25 µg/mL; in assay [9] (ATCC 27853), 1 µg/mL (≈ 0.861 µM); in assay [10] (FADDI-), 0.25 µg/mL (≈ 0.215 µM); in assay [11] (FADDI-PA022), 1 µg/mL (≈ 0.861 µM); in assay [12] (FADDI-PA038), 0.5 µg/mL (≈ 0.431 µM). Besides, the Minimum inhibitory concentration in [13] (FADDI-AB030) came to 0.5 µg/mL (≈ 0.431 µM).
